Source: PubChem BioAssay (NCI)
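Tested at 5 concentrations; 48 h exposure; 96-well plates; endpoints linearly interpolated, else capped at highest concentration. TGI is the concentration that stops growth completely.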

What was measured:
Experiment in all cases: NCI-60 cell line screen, 48 h
[1] = test system: EKVX NSCLC
[2] = test system: HL-60(TB) leukemia
[3] = test system: MDA-MB-435
[4] = test system: KM12 colon
[5] = test system: K-562 leukemia
[6] = test system: NCI-H522 lung
[7] = test system: HT29 colon
[8] = test system: ACHN renal
[9] = test system: SNB-75 CNS
[10] = test system: HCT-15 colon
[11] = test system: HCC-2998 colon
[12] = test system: MCF7 breast
[13] = test system: MOLT-4 leukemia
[14] = test system: NCI-H226 lung
[15] = test system: TK-10 renal
[16] = test system: CCRF-CEM leukemia
[17] = test system: HOP-92 NSCLC
[18] = test system: SK-MEL-5 melanoma
[19] = test system: RPMI-8226 leukemia
[20] = test system: RXF 393 renal
[21] = test system: OVCAR-3 ovarian
[22] = test system: CAKI-1 renal
[23] = test system: OVCAR-5 ovarian
[24] = test system: SN12C renal
[25] = test system: OVCAR-4 ovarian
[26] = test system: BT-549 breast
[27] = test system: UACC-257 melanoma
[28] = test system: UO-31 renal
[29] = test system: A498 renal
[30] = test system: MDA-N
[31] = test system: U251 CNS
[32] = test system: HOP-62 NSCLC
[33] = test system: 786-0 renal
[34] = test system: NCI-H460 lung
[35] = test system: SF-295 CNS
[36] = test system: NCI-H23 lung
[37] = test system: OVCAR-8 ovarian
[38] = test system: HCT-116 colon
[39] = test system: MDA-MB-231 breast
[40] = test system: NCI/ADR-RES ovarian
[41] = test system: SF-268 CNS
[42] = test system: SF-539 CNS
[43] = test system: PC-3 prostate
[44] = test system: SK-MEL-28 melanoma
[45] = test system: COLO 205 colon
[46] = test system: HS 578T breast
[47] = test system: SR leukemia
[48] = test system: SW-620 colon
[49] = test system: SNB-19 CNS
[50] = test system: MALME-3M melanoma
[51] = test system: DU-145 prostate
[52] = test system: A549 NSCLC
[53] = test system: IGROV1 ovarian
[54] = test system: LOX IMVI melanoma

Measured: TGI

CC(C)(C)OC(=O)NC(CSCc1ccc(C(=O)c2ccccc2)cc1)C(=O)O (centres undefined)
> 100 µM: all assays above
